In paper PMC11129182, “Development of Inhibitors, Probes, and PROTAC Provides a Complete Toolbox to Study PARK7 in the Living Cell” (Journal of Medicinal Chemistry, 2024):

Biological target: T1, PARK7 (Homo sapiens, UniProt Q99497)
T1 sequence (Q99497 1-189): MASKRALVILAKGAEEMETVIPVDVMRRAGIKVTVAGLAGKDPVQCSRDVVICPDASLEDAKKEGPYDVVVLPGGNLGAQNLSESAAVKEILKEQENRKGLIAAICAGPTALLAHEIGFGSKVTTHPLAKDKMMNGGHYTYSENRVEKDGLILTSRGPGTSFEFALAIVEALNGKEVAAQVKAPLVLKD
Assay: High-throughput screen of the crude compound library, PARK7 fluorescence polarization (FP) assay with FP reagent JYQ-107
Assay type: biochemical
Details: 1.25 µM, crude compound library, FP reagent JYQ-107; read-out: HTS FP assay %Inhibition (1.25 µM)

Going from `CC(C)CC(=O)N1CCc2nc(NC(=O)[C@@H]3CCN(C#N)C3)sc2C1` [compound 390] to `CC(C)C(=O)N1CCc2nc(NC(=O)[C@@H]3CCN(C#N)C3)sc2C1` [compound 392], the inhibition at 1.25 µM falls from 67.9% to 63%.

Going from `N#CN1CC[C@@H](C(=O)Nc2nc3c(s2)CN(C(=O)c2ccccc2I)CC3)C1` [compound 391] to `N#CN1CC[C@@H](C(=O)Nc2nc3c(s2)CN(C(=O)c2ccccc2C=O)CC3)C1` [compound 432], the inhibition at 1.25 µM falls from 73.6% to 57.9%.

Compared with `Cc1cc(OCC(=O)N2CCc3nc(NC(=O)[C@@H]4CCN(C#N)C4)sc3C2)ccc1C(C)C` [compound 393], `COc1ccc(C)cc1C(=O)N1CCc2nc(NC(=O)[C@@H]3CCN(C#N)C3)sc2C1` [compound 395] is higher in inhibition at 1.25 µM: 80.3% for the first, 84.8% for the second.

Going from `CCCC(=O)N1CCc2nc(NC(=O)[C@@H]3CCN(C#N)C3)sc2C1` [compound 394] to `CC(=O)CCC(=O)N1CCc2nc(NC(=O)[C@@H]3CCN(C#N)C3)sc2C1` [compound 443], the inhibition at 1.25 µM rises from 70.5% to 72.8%.

Going from `CC(C)(C)OC(=O)Nc1ccccc1C(=O)N1CCc2nc(NC(=O)[C@@H]3CCN(C#N)C3)sc2C1` [compound 396] to `CC(=O)Oc1ccccc1C(=O)N1CCc2nc(NC(=O)[C@@H]3CCN(C#N)C3)sc2C1` [compound 458], the inhibition at 1.25 µM rises from 65.2% to 67.9%.

Compared with `Cc1cncc(C(=O)N2CCc3nc(NC(=O)[C@@H]4CCN(C#N)C4)sc3C2)c1` [compound 397], `Cc1ccc(Br)c(C(=O)N2CCc3nc(NC(=O)[C@@H]4CCN(C#N)C4)sc3C2)c1` [compound 420] is higher in inhibition at 1.25 µM: 68.5% for the first, 83.3% for the second.

First: N#CN1CC[C@@H](C(=O)Nc2nc3c(s2)CN(C(=O)CCN2C(=O)C=CC2=O)CC3)C1 [compound 398]
Second: C#CCCC(=O)N1CCc2nc(NC(=O)[C@@H]3CCN(C#N)C3)sc2C1 [compound 401]
The inhibition at 1.25 µM of the first is lower: 65.7% for the first, 82.4% for the second.

Going from `N#CN1CC[C@@H](C(=O)Nc2nc3c(s2)CN(C(=O)Cc2ccc([N+](=O)[O-])cc2)CC3)C1` [compound 399] to `N#CN1CC[C@@H](C(=O)Nc2nc3c(s2)CN(C(=O)Cc2ccccc2[N+](=O)[O-])CC3)C1` [compound 400], the inhibition at 1.25 µM rises from 58.2% to 80.8%.

First: N#CN1CC[C@@H](C(=O)Nc2nc3c(s2)CN(C(=O)c2cnccn2)CC3)C1 [compound 402]
Second: N#CN1CC[C@@H](C(=O)Nc2nc3c(s2)CN(C(=O)Cc2ccncc2)CC3)C1 [compound 404]
The inhibition at 1.25 µM of the first is higher: 85.1% for the first, 58.2% for the second.

First: N#CN1CC[C@@H](C(=O)Nc2nc3c(s2)CN(C(=O)c2ccc(/N=N/c4ccccc4)cc2)CC3)C1 [compound 403]
Second: N#CN1CC[C@@H](C(=O)Nc2nc3c(s2)CN(C(=O)c2ccc4cc5ccccc5cc4c2)CC3)C1 [compound 455]
The inhibition at 1.25 µM of the first is higher: 84.3% for the first, 79.5% for the second.

First: Cn1c(=O)c2c(ncn2CC(=O)N2CCc3nc(NC(=O)[C@@H]4CCN(C#N)C4)sc3C2)n(C)c1=O [compound 405]
Second: N#CN1CC[C@@H](C(=O)Nc2nc3c(s2)CN(C(=O)CN2C(=O)c4ccccc4C2=O)CC3)C1 [compound 436]
The inhibition at 1.25 µM of the first is lower: 67.9% for the first, 72.4% for the second.

Going from `N#CN1CC[C@@H](C(=O)Nc2nc3c(s2)CN(C(=O)CNC(=O)c2ccccc2)CC3)C1` [compound 406] to `N#CN1CC[C@@H](C(=O)Nc2nc3c(s2)CN(C(=O)CCc2ccccc2)CC3)C1` [compound 459], the inhibition at 1.25 µM falls from 82.4% to 72.7%.

Going from `N#CN1CC[C@@H](C(=O)Nc2nc3c(s2)CN(C(=O)c2ccc(B(O)O)cc2)CC3)C1` [compound 407] to `N#CN1CC[C@@H](C(=O)Nc2nc3c(s2)CN(C(=O)c2cccc(B(O)O)c2)CC3)C1` [compound 444], the inhibition at 1.25 µM rises from 58.7% to 68.5%.

First: CC(C)(C)OC(=O)NCC(=O)N1CCc2nc(NC(=O)[C@@H]3CCN(C#N)C3)sc2C1 [compound 408]
Second: CC(C)(C)OC(=O)NC1(C(=O)N2CCc3nc(NC(=O)[C@@H]4CCN(C#N)C4)sc3C2)CC1 [compound 447]
The inhibition at 1.25 µM of the first is higher: 75.4% for the first, 68.7% for the second.

Going from `N#CN1CC[C@@H](C(=O)Nc2nc3c(s2)CN(C(=O)CCCCBr)CC3)C1` [compound 410] to `N#CN1CC[C@@H](C(=O)Nc2nc3c(s2)CN(C(=O)CCCCCBr)CC3)C1` [compound 412], the inhibition at 1.25 µM rises from 47.7% to 52.5%.

Compared with `N#CN1CC[C@@H](C(=O)Nc2nc3c(s2)CN(C(=O)C(Br)c2ccccc2)CC3)C1` (some centres unmarked) [compound 411], `N#CN1CC[C@@H](C(=O)Nc2nc3c(s2)CN(C(=O)CCc2ccccc2Br)CC3)C1` [compound 430] is higher in inhibition at 1.25 µM: 41.8% for the first, 87.5% for the second.

Compared with `N#CN1CC[C@@H](C(=O)Nc2nc3c(s2)CN(C(=O)c2ccccc2CCc2ccccc2)CC3)C1` [compound 413], `N#CN1CC[C@@H](C(=O)Nc2nc3c(s2)CN(C(=O)c2cccc4c2-c2ccccc2C4)CC3)C1` [compound 425] is higher in inhibition at 1.25 µM: 79.7% for the first, 84% for the second.

First: N#CN1CC[C@@H](C(=O)Nc2nc3c(s2)CN(C(=O)c2ccc(CBr)cc2)CC3)C1 [compound 414]
Second: N#CN1CC[C@@H](C(=O)Nc2nc3c(s2)CN(C(=O)c2ccc(C=O)cc2)CC3)C1 [compound 424]
The inhibition at 1.25 µM of the first is lower: -19.6% for the first, 76.8% for the second.

Going from `C#CCCCC(=O)N1CCc2nc(NC(=O)[C@@H]3CCN(C#N)C3)sc2C1` [compound 416] to `CC(=O)CCCC(=O)N1CCc2nc(NC(=O)[C@@H]3CCN(C#N)C3)sc2C1` [compound 431], the inhibition at 1.25 µM falls from 75.5% to 72.4%.

Compared with `N#CN1CC[C@@H](C(=O)Nc2nc3c(s2)CN(C(=O)c2nccc4ccccc24)CC3)C1` [compound 417], `N#CN1CC[C@@H](C(=O)Nc2nc3c(s2)CN(C(=O)c2cccc4cc5ccccc5cc24)CC3)C1` [compound 456] is lower in inhibition at 1.25 µM: 82.2% for the first, 80.6% for the second.

Compared with `Cc1c(Br)cccc1C(=O)N1CCc2nc(NC(=O)[C@@H]3CCN(C#N)C3)sc2C1` [compound 418], `N#CN1CC[C@@H](C(=O)Nc2nc3c(s2)CN(C(=O)c2cc([N+](=O)[O-])ccc2Br)CC3)C1` [compound 441] is higher in inhibition at 1.25 µM: 81% for the first, 81.4% for the second.

Going from `CC(=O)CCCCC(=O)N1CCc2nc(NC(=O)[C@@H]3CCN(C#N)C3)sc2C1` [compound 419] to `N#CCC(=O)N1CCc2nc(NC(=O)[C@@H]3CCN(C#N)C3)sc2C1` [compound 457], the inhibition at 1.25 µM falls from 74% to 49.3%.

Compared with `N#CN1CC[C@@H](C(=O)Nc2nc3c(s2)CN(C(=O)c2sccc2Br)CC3)C1` [compound 421], `N#CN1CC[C@@H](C(=O)Nc2nc3c(s2)CN(C(=O)c2ccc(F)c(F)c2)CC3)C1` [compound 446] is lower in inhibition at 1.25 µM: 79.7% for the first, 74.4% for the second.

Going from `N#CN1CC[C@@H](C(=O)Nc2nc3c(s2)CN(C(=O)c2ccc(NNC(=O)OCC4c5ccccc5-c5ccccc54)cc2)CC3)C1` [compound 422] to `N#CN1CC[C@@H](C(=O)Nc2nc3c(s2)CN(C(=O)c2ccc(CNC(=O)OCC4c5ccccc5-c5ccccc54)cc2)CC3)C1` [compound 448], the inhibition at 1.25 µM falls from 78.9% to 63.9%.

Compared with `N#CN1CC[C@@H](C(=O)Nc2nc3c(s2)CN(C(=O)c2cc(C=O)ccc2O)CC3)C1` [compound 427], `N#CN1CC[C@@H](C(=O)Nc2nc3c(s2)CN(C(=O)c2cccc(C=O)c2)CC3)C1` [compound 433] is higher in inhibition at 1.25 µM: 63.9% for the first, 81.4% for the second.

Going from `CCCN(CCC)S(=O)(=O)c1ccc(C(=O)N2CCc3nc(NC(=O)[C@@H]4CCN(C#N)C4)sc3C2)cc1` [compound 428] to `CN(C)c1ccc(C(=O)N2CCc3nc(NC(=O)[C@@H]4CCN(C#N)C4)sc3C2)cc1` [compound 449], the inhibition at 1.25 µM falls from 85.1% to 82.9%.

Compared with `CN1C(=O)C[C@@H](C(=O)N2CCc3nc(NC(=O)[C@@H]4CCN(C#N)C4)sc3C2)[C@@H]1c1cccnc1` [compound 429], `N#CN1CC[C@@H](C(=O)Nc2nc3c(s2)CN(C(=O)CCc2cccnc2)CC3)C1` [compound 445] is higher in inhibition at 1.25 µM: 59.5% for the first, 62.7% for the second.

Going from `CCCCNc1ccc(C(=O)N2CCc3nc(NC(=O)[C@@H]4CCN(C#N)C4)sc3C2)cc1` [compound 434] to `CNc1ccc(C(=O)N2CCc3nc(NC(=O)[C@@H]4CCN(C#N)C4)sc3C2)cc1` [compound 439], the inhibition at 1.25 µM falls from 81.3% to 73.3%.

Going from `N#CN1CC[C@@H](C(=O)Nc2nc3c(s2)CN(C(=O)CCC2CCCCC2)CC3)C1` [compound 435] to `N#CN1CC[C@@H](C(=O)Nc2nc3c(s2)CN(C(=O)C(Cl)(Cl)Cl)CC3)C1` [compound 460], the inhibition at 1.25 µM falls from 78.3% to 6.9%.

Compared with `COc1cc(CC(=O)N2CCc3nc(NC(=O)[C@@H]4CCN(C#N)C4)sc3C2)ccc1O` [compound 437], `N#CN1CC[C@@H](C(=O)Nc2nc3c(s2)CN(C(=O)CCc2ccc(O)cc2)CC3)C1` [compound 438] is higher in inhibition at 1.25 µM: 73.6% for the first, 74.4% for the second.

First: N#CN1CC[C@@H](C(=O)Nc2nc3c(s2)CN(C(=O)c2c(F)c(F)c(O)c(F)c2F)CC3)C1 [compound 442]
Second: N#CN1CC[C@@H](C(=O)Nc2nc3c(s2)CN(C(=O)c2ccc(N4CCCC4)cc2F)CC3)C1 [compound 451]
The inhibition at 1.25 µM of the first is lower: 51.4% for the first, 82.6% for the second.

Compared with `CC(C)(C)OC(=O)N1C[C@@H](O)C[C@@H]1C(=O)N1CCc2nc(NC(=O)[C@@H]3CCN(C#N)C3)sc2C1` [compound 450], `CC(C)(C)OC(=O)N1CC[C@H](C(=O)N2CCc3nc(NC(=O)[C@@H]4CCN(C#N)C4)sc3C2)C1` [compound 454] is higher in inhibition at 1.25 µM: 68.1% for the first, 73.8% for the second.

Compared with `COc1ccccc1-c1cc(C(=O)N2CCc3nc(NC(=O)[C@@H]4CCN(C#N)C4)sc3C2)n[nH]1` [compound 452], `N#CN1CC[C@@H](C(=O)Nc2nc3c(s2)CN(C(=O)c2cc(-c4cccc(Cl)c4)no2)CC3)C1` [compound 453] is lower in inhibition at 1.25 µM: 84.6% for the first, 52.8% for the second.

Same assay, conditions: read-out: HTS FP assay %Inhibition (1.25 µM)

Compared with `CC(C)(C)OC(=O)N[C@@H](Cc1cn(-c2ccc([N+](=O)[O-])cc2[N+](=O)[O-])cn1)C(=O)N1CCc2nc(NC(=O)[C@@H]3CCN(C#N)C3)sc2C1` [compound 409], `N#CN1CC[C@@H](C(=O)Nc2nc3c(s2)CN(C(=O)Cn2cc(C=O)c4ccccc42)CC3)C1` [compound 423] is lower in inhibition at 1.25 µM: 75.4% for the first, 72.5% for the second.
